Test results as given in patent US6737383B1, “Herbicidal oxadiazolidines” (priority 1999, dated 2004).

Assays:
soybean = test: Test B pre/postemergence soybean; assay type: in vivo, Glycine max; settings: for Soybean plant response rating: scale of 0 to 10 where 0 is no effect and 10 is complete control
Procedure, shortened: (§1)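 Response is a visual 0-to-10 score relative to untreated plants, where 0 means no effect and 10 means complete control, taken twelve to sixteen days after application. Treatments went onto soil at planting and onto foliage of 1- to 4-leaf plants, using a surfactant-containing non-phytotoxic solvent.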

wild oat = test: Test B pre/postemergence wild oat; assay type: in vivo, Avena fatua; settings: for Wild oats plant response rating: scale of 0 to 10 where 0 is no effect and 10 is complete control
Procedure, shortened: as §1

pigweed = test: Test B pre/postemergence pigweed; assay type: in vivo, Amaranthus retroflexus; settings: for Redroot pigweed plant response rating: scale of 0 to 10 where 0 is no effect and 10 is complete control
Procedure, shortened: as §1

rice = test: Test B flood test rice; assay type: in vivo, Oryza sativa
Procedure, shortened: (§2)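 Plants were grown to the 2-leaf stage before treatment with test chemical, then held in a greenhouse for twelve to sixteen days. Injury was visually rated against untreated controls on a 0–10 scale, where 0 is no effect and 10 is complete control.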

rape = test: Test B pre/postemergence rape; assay type: in vivo, Brassica napus; settings: for Rape plant response rating: scale of 0 to 10 where 0 is no effect and 10 is complete control
Procedure, shortened: as §1

duck salad = test: Test B flood test duck salad; assay type: in vivo, Heteranthera limosa
Procedure, shortened: as §2

bedstraw = test: Test B pre/postemergence bedstraw; assay type: in vivo, Galium aparine; settings: Preemergence; for Bedstraw plant response rating: scale of 0 to 10 where 0 is no effect and 10 is complete control
Procedure, shortened: as §1

sugar beet = test: Test B pre/postemergence sugar beet; assay type: in vivo, Beta vulgaris; settings: for Sugarbeets plant response rating: scale of 0 to 10 where 0 is no effect and 10 is complete control
Procedure, shortened: as §1

cocklebur = test: Test B pre/postemergence cocklebur; assay type: in vivo, Xanthium strumarium; settings: Postemergence, Rate 125 g/ha; scale 0 to 10, 0 is no effect, 10 is complete control
Procedure, shortened: as §1

[1] = Postemergence, Rate 125 g/ha, scale 0 to 10, 0 is no effect, 10 is complete control
[2] = Preemergence, Rate 62 g/ha, scale 0 to 10 (0 no effect, 10 complete control)
[3] = Rate 500 g/ha, Postemergence, scale 0 to 10, 0 no effect, 10 complete control
[4] = Postemergence (flood test), Rate 125 g/ha, scale 0 to 10, 0 is no effect, 10 is complete control
[5] = Rate 62 g/ha, Postemergence (flood test species), scale of 0 to 10 where 0 is no effect and 10 is complete control
[6] = Rate 62 g/ha, flood test species, Pre-emergence, visual evaluation after twelve to sixteen days
[7] = Rate 125 g/ha, Pre-emergence, flood test species, scale 0 to 10 where 0 is no effect and 10 is complete control
[8] = Rate 250 g/ha, Pre-emergence, flood-test species, scale 0 to 10, 0 is no effect, 10 is complete control
[9] = Rate 500 g/ha, listed under Postemergence (flood test species), scale 0 to 10, 0 no effect, 10 complete control
[10] = Rate 500 g/ha, Pre-emergence, flood test species, scale 0 to 10 (0 no effect, 10 complete control)

CC(C)N(C(=O)n1oc(=O)n(C2CCC2)c1=O)c1ccc(F)cc1 [Compound 350]
Plant response rating, Soybean (soybean; [1]): 1
Plant response rating, Soybean (soybean; [2]): 0
Soybean plant response rating (0 to 10 scale) (soybean; Preemergence, Rate 125 g/ha): 0
Soybean plant response rating (soybean; Preemergence, Rate 250 g/ha): 0
Soybean plant response rating (soybean; Preemergence, Rate 500 g/ha): 2
Soybean plant response rating (soybean; Rate 62 g/ha, Postemergence): 1
Plant response rating, Soybean (soybean; [3]): 3
Plant response rating, Wild oats (wild oat; [1]): 0
Plant response rating, Wild oats (wild oat; [2]): 0
Wild oats plant response rating (0 to 10 scale) (wild oat; Preemergence, Rate 125 g/ha): 3
Wild oats plant response rating (wild oat; Preemergence, Rate 250 g/ha): 5
Wild oats plant response rating (wild oat; Preemergence, Rate 500 g/ha): 7
Wild oats plant response rating (wild oat; Rate 62 g/ha, Postemergence): 0
Plant response rating, Wild oats (wild oat; [3]): 5
Plant response rating, Redroot pigweed (pigweed; [1]): 0
Plant response rating, Redroot pigweed (pigweed; [2]): 4
Redroot pigweed plant response rating (0 to 10 scale) (pigweed; Preemergence, Rate 125 g/ha): 10
Redroot pigweed plant response rating (pigweed; Preemergence, Rate 250 g/ha): 10
Redroot pigweed plant response rating (pigweed; Preemergence, Rate 500 g/ha): 10
Redroot pigweed plant response rating (pigweed; Rate 62 g/ha, Postemergence): 0
Plant response rating, Redroot pigweed (pigweed; [3]): 3
Plant response rating, Rice (rice; [4]): 0
Rice plant response rating (rice; [5]): 0
Plant response rating, Rice (0 to 10 scale, 0 is no effect, 10 is complete control) (rice; [6]): 0
Rice plant response rating (rice; [7]): 0
Rice plant response rating (rice; [8]): 0
Plant response rating, Rice (rice; [9]): 0
Rice plant response rating (rice; [10]): 0
Plant response rating, Rape (rape; [1]): 0
Plant response rating, Rape (rape; [2]): 0
Rape plant response rating (0 to 10 scale) (rape; Preemergence, Rate 125 g/ha): 0
Rape plant response rating (rape; Preemergence, Rate 250 g/ha): 7
Rape plant response rating (rape; Preemergence, Rate 500 g/ha): 10
Rape plant response rating (rape; Rate 62 g/ha, Postemergence): 0
Plant response rating, Rape (rape; [3]): 2
Plant response rating, Ducksalad (duck salad; [4]): 2
Ducksalad plant response rating (duck salad; [5]): 0
Plant response rating, Ducksalad (0 to 10 scale, 0 is no effect, 10 is complete control) (duck salad; [6]): 0
Ducksalad plant response rating (duck salad; [7]): 0
Ducksalad plant response rating (duck salad; [8]): 0
Plant response rating, Ducksalad (duck salad; [9]): 3
Ducksalad plant response rating (duck salad; [10]): 0
Plant response rating, Bedstraw (bedstraw; Rate 62 g/ha, scale 0 to 10 (0 no effect, 10 complete control)): 10
Bedstraw plant response rating (0 to 10 scale) (bedstraw; Rate 125 g/ha): 10
Bedstraw plant response rating (bedstraw; Rate 250 g/ha): 10
Bedstraw plant response rating (bedstraw; Rate 500 g/ha): 10
Plant response rating, Sugarbeets (sugar beet; [1]): 0
Plant response rating, Sugarbeets (sugar beet; [2]): 2
Sugarbeets plant response rating (0 to 10 scale) (sugar beet; Preemergence, Rate 125 g/ha): 2
Sugarbeets plant response rating (sugar beet; Preemergence, Rate 250 g/ha): 4
Sugarbeets plant response rating (sugar beet; Preemergence, Rate 500 g/ha): 9
Sugarbeets plant response rating (sugar beet; Rate 62 g/ha, Postemergence): 0
Plant response rating, Sugarbeets (sugar beet; [3]): 0
Plant response rating, Cocklebur (cocklebur): 0
